The subject of one data set is HUVECs. Nature of the data set: Tube formation (angiogenesis) in Matrigel. The format is cell-based, human. To be noted: 12 hours, 1 and 10 μM, vs control. The method, then:
Cells in Matrigel were treated with A) DMSO, B) 1 μM or C) 10 μM IPA/NO-aspirin, D) 1 μM or E) 10 μM DEA/NO-aspirin at 37° C., and the extent of tube formation was measured after 12 h using a microscope.
The impact of the NONO-aspirin prodrugs on tube formation in HUVECs after 12 hours treatment was examined as a measure of angiogenesis.

A short description of data set [1]: Prodrug decomposition in cells. The format is in vitro ADME. To be noted: A549 cells.
In data set [2] the test system is E-cadherin in MDA-MB-231 cells. Nature of the data set: E-cadherin expression (RT-PCR, Western blot). To be noted: 100 μM, 3, 6 or 12 h; for E-cadherin mRNA expression: RT-PCR; for E-cadherin protein level: Western blot. The format is cell-based, human. The method, then: The cells were treated with vehicle (black) or 100 μM IPA/NO-aspirin (blue) or DEA/NO-aspirin (green) for 3, 6 or 12 h at 37° C. Relative mRNA expression was measured using RT-PCR techniques. E-cadherin mRNA were quantified with respect to control (1).
The cells were treated with vehicle (black) or 100 μM IPA/NO-aspirin (blue) or DEA/NO-aspirin (green) for 3, 6 or 12 h at 37° C. Protein expression was measured using Western blot techniques. E-cadherin protein levels were quantified with respect to control (100%).
Epithelial cadherin (E-cadherin) is calcium-dependent, membrane-associated cellular adhesion glycoprotein. Loss of E-cadherin-mediated cellular adhesion is a prerequisite for invasion and metastasis of tumor cells. NO is an endogenous mediator of endothelial cell migration. […] However, the effect of HNO on metastasis has not been studied. […] This can result in a reversal of tumor cells from an invasive, mesenchymal, to a benign, epithelial phenotype.
A general note: Immunoblotting shows a protein as a band on a membrane.

The test system of data set [3] is cleaved PARP in MDA-MB-231 cells. Nature of the data set: PARP cleavage by Western blot. The format is cell-based, human. The conditions noted are these: 1-44 h, preliminary analysis. As to the method:
The cells were treated with 50 μM IPA/NO-aspirin (blue) or 75 μM DEA/NO-aspirin (green), respectively at 37° C., and protein was collected at various time points (1-44 h). Lanes 1-6 (20 μg of protein): IPA/NO-aspirin at 1, 3, 6, 10, 20, 44 h; […]: DEA/NO-aspirin at 1, 6, 10, 20, 30, 44 h; Lane 15: control. Cleaved PARP levels at different time points were quantified by Western blot with respect to control, which was treated as 100%. HPRT was used as the loading control.
Since a number of chemotherapies and radiation therapy are based on inducing DNA damage in cancer cells, inhibition of PARP by HNO donors may increase the efficacy of these treatments. Furthermore, IPA/NO-aspirin is able to not only induce DNA damage but also to impede DNA repair.

A short description of data set [4]: Stability in phosphate buffer pH 7.4. The format is physicochemical. The method, then: The newly synthesized HNO-releasing aspirin (IPA/NO-aspirin, 4) and NO-releasing aspirin (DEA/NO-aspirin, 8) were evaluated for the kinetic profile of NO and HNO release in buffer and cells.
A further data set deals with MCF-10A cells. Nature of the data set: MTT cell viability. The format is cell-based, human. The conditions noted are these: read-out: concentration for 50% reduction of viability (IC50), 48 h, did not reach a 50% reduction at 200 μM. As to the method: (§1) Figures are representative of three trials with data plotted as mean percentage versus untreated cells±SD of the four replicates per plate). Vehicle (DMSO or 10 mM NaOH) was added as a control to otherwise untreated cells.
(§2) For examples utilizing cell culture methods, the following procedure was instituted. Human breast adenocarcinoma cells (MDA-MB-231, MCF-7 and MDA-MB-468; American Type Culture Collection, Manassas, Va.) were grown as monolayers in RPMI 1640 (Invitrogen, Carlsbad, Calif.) supplemented with 10% FBS (Hyclone, Thermo Fisher Scientific Inc., Waltham, Mass.), penicillin (50 units mL^−1) and streptomycin ([…]; Life Technologies, Inc., Grand Island, N.Y.). Non-tumorigenic, human breast epithelial cells (MCF-10A; American Type Culture Collection) and HUVECs (Cell Applications, Inc., San Diego, Calif.) were grown as monolayers in endothelial growth media (Lonza Inc., US-Allendale, N.J. or Cell Applications, Inc., San Diego, Calif.). Cells were seeded at a density of 1×10^6 cells per 100 cm^2 culture dish and were incubated at 37° C. in 5% CO2 at 80% relative humidity. Single-cell suspensions were obtained by trypsinization (0.05% trypsin/EDTA, Invitrogen, Carlsbad, Calif.). MDA-MB-231 cells stably transfected with green fluorescent protein (GFP) and G418 antibiotic resistance gene were a generous gift from Dr. Aldona Karaczyn from the Maine Medical Center Research Institute, Scarborough, Me. MDA-MB-231-GFP cells were grown as described for MDA-MB-231 cells with the addition of […] ([…]) to ensure vector presence.
(§3) In this example, the impact of IPA/NO-aspirin and DEA/NO-aspirin was assessed compared to aspirin or the parent diazeniumdiolate on proliferation of four human breast cell lines: MDA-MB-231 (ER(−) adenocarcinoma), MDA-MB-468 (ER(−) adenocarcinoma), MCF-7 (ER(+) adenocarcinoma) and MCF-10A (non-tumorigenic, immortalized human breast epithelial cells).

For a further data set, the system named is MCF-7 cells. Nature of the data set: MTT cell viability. The format is cell-based, human. To be noted: read-out: concentration for 50% reduction of viability (IC50), MCF-7, 48 h, mean ± SD for three trials. The method, then: as §1, §2, §3
Another data set concerns MDA-MB-468 cells. Nature of the data set: MTT cell viability. The format is cell-based, human. The conditions noted are these: read-out: concentration for 50% reduction of viability (IC50), MDA-MB-468, 48 h, mean ± SD for three trials. As to the method:
as §1, §2, §3

In the next data set the test system is MDA-MB-231 cells. Nature of the data set: MTT cell viability. The format is cell-based, human. The conditions noted are these: read-out: concentration for 50% reduction of viability (IC50), MDA-MB-231, 48 h, mean ± SD for three trials. As to the method:
as §1, §2, §3

A further data set has as its system caspase-3. Nature of the data set: Caspase-3 activity in breast cancer cells. The format is cell-based, human. The conditions noted are these: MDA-MB-231, MDA-MB-468, MCF-7; 0-100 μM, 24 h, 37° C. As to the method:
The cells were treated with various concentrations (0, 25, 50, 100 μM) of IPA/NO-aspirin (blue) or DEA/NO-aspirin (green) for 24 h at 37° C. Caspase-3 activity was determined by recording the fluorescence ( ? 485 nm, ? 535 nm) of the product formed by cleavage of the substrate, N-Ac-DEVD-N′-MC-R11. Data are plotted as mean±SD (n=3).
Caspases are cysteine-aspartate proteases that can trigger apoptosis through a signaling cascade. Caspase-3 is an effector protease that has active cysteine residues that are susceptible to S-nitrosation. The impact of this modification has been variously reported to lead to reversible inhibition and to activation.

SMILES strings stand for the structures.

Regarding `CCN(CC)[N+]([O-])=NOCOC(=O)c1ccccc1OC(C)=O` [DEA/NO-aspirin, O2-(Acetylsalicyloyloxymethyl)-1-(N,N-Diethylamino)-diazen-1-ium-1,2-diolate], in the data set with HUVECs, the “angiogenesis (tube formation)” value is “reduced angiogenesis”. In addition, in [1], the “lifetime in cells relative to IPA/NO-aspirin” value was “about three times longer-lived”. Further, the “E-cadherin mRNA expression” value in data set [2] was “did increase E-cadherin expression in a time-dependent manner”. In data set [2], the E-cadherin protein level result is given as “did increase E-cadherin expression in a time-dependent manner”. The “level of cleaved PARP” value in [3] (75 μM) was “relatively short-lived”. Moreover, the stability in buffer result in data set [4] was “relatively stable in phosphate buffer pH 7.4 for several hours”. In addition, the IC50 with MCF-10A cells was over 200 µM; in the data set on MCF-7 cells, 122 ± 3 µM; in the data set on MDA-MB-468 cells, 90 ± 4 µM; in the data set with MDA-MB-231 cells, 102 ± 10 µM. In addition, the caspase-3 activity result in the data set on caspase-3 is “more modest in MDA-MB-231 and MCF7 cells”.
In the case of `CC(=O)Oc1ccccc1C(=O)OCON=[N+]([O-])NC(C)C` [IPA/NO-aspirin, O2-(Acetylsalicyloyloxymethyl)-1-(N-isopropylamino)-diazen-1-ium-1,2-diolate], in the data set with HUVECs, the “angiogenesis (tube formation)” value is recorded as “reduced angiogenesis”. Moreover, the “time to complete decomposition in cells” value in [1] is recorded as “approximately 3 hours”. The “E-cadherin mRNA expression” value in [2] was “does not show any significant change”. The E-cadherin protein level result in data set [2] is reported as “does not show any significant change”. Besides, the “level of cleaved PARP” value in data set [3] (50 μM) is “increases the level of cleaved PARP in a longer-term fashion”. In addition, the stability in buffer entry in data set [4] is on record as “relatively stable in phosphate buffer pH 7.4 for several hours”. The IC50 with MCF-10A cells was over 200 µM; in the data set on MCF-7 cells it was 93 ± 2 µM; in the data set with MDA-MB-468 cells it was 81 ± 2 µM; in the data set on MDA-MB-231 cells it was 92 ± 1 µM. For the same compound, in the data set on caspase-3, the caspase-3 activity result is “activated caspase-3 in all three breast cancer lines”.

Source of the values: US10213445B2, “Compositions and methods of diazeniumdiolate-based prodrugs for treating cancer” (ARIZONA BOARD OF REGENTS ON BEHALF OF THE UNIVERSITY OF …, priority 2014, dated 2019).
